In patent US10844080B2, “Compositions and methods for inhibiting arginase activity” (CALITHERA BIOSCIENCES, INC., priority 2015, dated 2020):

Tested on: Lewis Lung Carcinoma cells
Test: Lewis Lung Carcinoma efficacy study
Assay type: in vivo
Details: single agent, dosed orally twice daily at 50, 100 or 200 mg/kg; female C57.Bl/6 mice implanted subcutaneously with Lewis Lung Carcinoma cells; relative to control
Experimental: Female C57.Bl/6 mice (n=40) were implanted subcutaneously with 1×10^6 Lewis Lung Carcinoma cells suspended in PBS. The day following implantation, mice were randomized into 4 groups of n=10 mice to receive the following treatments dosed orally twice daily until study end: 1) Vehicle (water); 2) Compound 10 at 50 mg/kg formulated in water; 3) Compound 10 at 100 mg/kg formulated in water; or 4) Compound 10 at 200 mg/kg formulated in water. Tumors were measured three times per week with digital calipers and tumor volumes calculated with the following formula: tumor volume (mm^3)=(a×b^2/2) where ‘b’ is the smallest diameter and ‘a’ is the largest perpendicular diameter. ***P-value<0.001, ****P-value<0.0001 (Two-sided T-test).

SMILES: C[C@H](N)C(=O)N1C[C@H](CCCB(O)O)[C@](N)(C(=O)O)C1 [Compound 10, (3R,4S)-3-amino-1-((S)-2-aminopropanoyl)-4-(3-boronopropyl)pyrrolidine-3-carboxylic acid]
- tumor volume over time (tumor growth): slows tumor growth relative to control
